Source: the supplement of paper PMC10307832

Experiments:
Experiment in all cases: relative viability (nuclei count vs DMSO), 5 days (fraction); higher = more cells survive
RERF-LC-KJ = tested on: RERF-LC-KJ
Method in brief: (§1)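 Lung cancer cell lines in 1536-well plates were dosed by pin tool the day after seeding, either with one drug alone or with a fixed anchor-drug dose plus five library-drug doses (not always all listed) in √10 steps. After 5 days, cells were fixed and their nuclei stained in one step (final 0.05% Triton X-100, 1% formaldehyde, 1 ug/ml Hoechst), then counted on 4× images. Relative viability is the nuclei count in treated wells divided by that in vehicle wells. Values are medians of duplicate plates.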

NCI-H1355 = tested on: NCI-H1355
Method in brief: as §1

LK-2 = tested on: LK-2
Method in brief: as §1

NCI-H1563 = tested on: NCI-H1563
Method in brief: as §1

CAL-12T = tested on: CAL-12T
Method in brief: as §1

LCLC-97TM1 = tested on: LCLC-97TM1
Method in brief: as §1

PC-14 = tested on: PC-14
Method in brief: as §1

EKVX = tested on: EKVX
Method in brief: as §1

NCI-H2405 = tested on: NCI-H2405
Method in brief: as §1

NCI-H1650 = tested on: NCI-H1650
Method in brief: as §1

NCI-H2228 = tested on: NCI-H2228
Method in brief: as §1

NCI-H661 = tested on: NCI-H661
Method in brief: as §1

HCC-15 = tested on: HCC-15
Method in brief: as §1

NCI-H1975 = tested on: NCI-H1975
Method in brief: as §1

NCI-H520 = tested on: NCI-H520
Method in brief: as §1

PC-3 [JPC-3] = tested on: PC-3 [JPC-3]
Method in brief: as §1

NCI-H322M = tested on: NCI-H322M
Method in brief: as §1

HCC-827 = tested on: HCC-827
Method in brief: as §1

NCI-H1734 = tested on: NCI-H1734
Method in brief: as §1

NCI-H1755 = tested on: NCI-H1755
Method in brief: as §1

H3255 = tested on: H3255
Method in brief: as §1

## CC(=O)O[C@@]12CO[C@@H]1C[C@H](O)[C@@]1(C)C(=O)[C@H](O)C3=C(C)[C@@H](OC(=O)[C@H](O)[C@@H](NC(=O)OC(C)(C)C)c4ccccc4)C[C@@](O)([C@@H](OC(=O)c4ccccc4)[C@H]21)C3(C)C [Docetaxel] + C[C@@H](Oc1cc(-c2cnn(C3CCNCC3)c2)cnc1N)c1c(Cl)ccc(F)c1Cl [Crizotinib] (partner 1 µM)
RERF-LC-KJ; first compound 0.0002 µM
  relative viability: 0.868
RERF-LC-KJ; first compound 0.000632 µM
  relative viability: 0.7
RERF-LC-KJ; first compound 0.002 µM
  relative viability: 0.509
RERF-LC-KJ; first compound 0.006325 µM
  relative viability: 0.196
RERF-LC-KJ; first compound 0.02 µM
  relative viability: 0.166
NCI-H1355; first compound 0.0002 µM
  relative viability: 1.01
NCI-H1355; first compound 0.000632 µM
  relative viability: 0.893
NCI-H1355; first compound 0.002 µM
  relative viability: 0.456
NCI-H1355; first compound 0.006325 µM
  relative viability: 0.241
NCI-H1355; first compound 0.02 µM
  relative viability: 0.198
LK-2; first compound 0.0002 µM
  relative viability: 0.209
LK-2; first compound 0.000632 µM
  relative viability: 0.202
LK-2; first compound 0.002 µM
  relative viability: 0.228
LK-2; first compound 0.006325 µM
  relative viability: 0.213
LK-2; first compound 0.02 µM
  relative viability: 0.228
NCI-H1563; first compound 0.0002 µM
  relative viability: 0.829
NCI-H1563; first compound 0.000632 µM
  relative viability: 0.926
NCI-H1563; first compound 0.002 µM
  relative viability: 0.928
NCI-H1563; first compound 0.006325 µM
  relative viability: 0.799
NCI-H1563; first compound 0.02 µM
  relative viability: 0.77
CAL-12T; first compound 0.0002 µM
  relative viability: 0.717
CAL-12T; first compound 0.000632 µM
  relative viability: 0.341
CAL-12T; first compound 0.002 µM
  relative viability: 0.146
CAL-12T; first compound 0.02 µM
  relative viability: 0.096
LCLC-97TM1; first compound 0.000632 µM
  relative viability: 0.178
LCLC-97TM1; first compound 0.002 µM
  relative viability: 0.115
LCLC-97TM1; first compound 0.006325 µM
  relative viability: 0.139
LCLC-97TM1; first compound 0.02 µM
  relative viability: 0.12
PC-14; first compound 0.0002 µM
  relative viability: 0.932
PC-14; first compound 0.000632 µM
  relative viability: 0.861
PC-14; first compound 0.002 µM
  relative viability: 0.317
PC-14; first compound 0.006325 µM
  relative viability: 0.0812
PC-14; first compound 0.02 µM
  relative viability: 0.0748
EKVX; first compound 0.0002 µM
  relative viability: 0.725
EKVX; first compound 0.000632 µM
  relative viability: 0.885
EKVX; first compound 0.002 µM
  relative viability: 0.432
EKVX; first compound 0.006325 µM
  relative viability: 0.25
EKVX; first compound 0.02 µM
  relative viability: 0.145
NCI-H2405; first compound 0.0002 µM
  relative viability: 0.87
NCI-H2405; first compound 0.000632 µM
  relative viability: 0.623
NCI-H2405; first compound 0.002 µM
  relative viability: 0.447
NCI-H2405; first compound 0.006325 µM
  relative viability: 0.396
NCI-H2405; first compound 0.02 µM
  relative viability: 0.292
NCI-H1650; first compound 0.0002 µM
  relative viability: 0.906
NCI-H1650; first compound 0.000632 µM
  relative viability: 0.398
NCI-H1650; first compound 0.002 µM
  relative viability: 0.206
NCI-H1650; first compound 0.006325 µM
  relative viability: 0.185
NCI-H1650; first compound 0.02 µM
  relative viability: 0.141
NCI-H2228; first compound 0.0002 µM
  relative viability: 0.358
NCI-H2228; first compound 0.000632 µM
  relative viability: 0.292
NCI-H2228; first compound 0.002 µM
  relative viability: 0.22
NCI-H2228; first compound 0.006325 µM
  relative viability: 0.278
NCI-H2228; first compound 0.02 µM
  relative viability: 0.159
NCI-H661; first compound 0.000632 µM
  relative viability: 1.06
NCI-H661; first compound 0.002 µM
  relative viability: 0.914
NCI-H661; first compound 0.006325 µM
  relative viability: 0.68
NCI-H661; first compound 0.02 µM
  relative viability: 0.503
HCC-15; first compound 0.0002 µM
  relative viability: 0.818
HCC-15; first compound 0.000632 µM
  relative viability: 0.452
HCC-15; first compound 0.002 µM
  relative viability: 0.172
HCC-15; first compound 0.006325 µM
  relative viability: 0.207
HCC-15; first compound 0.02 µM
  relative viability: 0.14
NCI-H1975; first compound 0.0002 µM
  relative viability: 0.861
NCI-H1975; first compound 0.000632 µM
  relative viability: 0.483
NCI-H1975; first compound 0.002 µM
  relative viability: 0.23
NCI-H1975; first compound 0.006325 µM
  relative viability: 0.192
NCI-H1975; first compound 0.02 µM
  relative viability: 0.142
NCI-H520; first compound 0.0002 µM
  relative viability: 0.672
NCI-H520; first compound 0.000632 µM
  relative viability: 0.784
NCI-H520; first compound 0.002 µM
  relative viability: 0.196
NCI-H520; first compound 0.006325 µM
  relative viability: 0.155
NCI-H520; first compound 0.02 µM
  relative viability: 0.156
PC-3 [JPC-3]; first compound 0.0002 µM
  relative viability: 0.966
PC-3 [JPC-3]; first compound 0.000632 µM
  relative viability: 0.918
PC-3 [JPC-3]; first compound 0.002 µM
  relative viability: 0.635
PC-3 [JPC-3]; first compound 0.006325 µM
  relative viability: 0.223
PC-3 [JPC-3]; first compound 0.02 µM
  relative viability: 0.172
NCI-H322M; first compound 0.0002 µM
  relative viability: 0.817
NCI-H322M; first compound 0.000632 µM
  relative viability: 0.91
NCI-H322M; first compound 0.002 µM
  relative viability: 0.71
NCI-H322M; first compound 0.006325 µM
  relative viability: 0.233
NCI-H322M; first compound 0.02 µM
  relative viability: 0.405
HCC-827; first compound 0.0002 µM
  relative viability: 0.943
HCC-827; first compound 0.000632 µM
  relative viability: 0.91
HCC-827; first compound 0.002 µM
  relative viability: 0.68
HCC-827; first compound 0.006325 µM
  relative viability: 0.416
HCC-827; first compound 0.02 µM
  relative viability: 0.342
NCI-H1734; first compound 0.0002 µM
  relative viability: 0.498
NCI-H1734; first compound 0.000632 µM
  relative viability: 0.576
NCI-H1734; first compound 0.002 µM
  relative viability: 0.362
NCI-H1734; first compound 0.006325 µM
  relative viability: 0.298
NCI-H1734; first compound 0.02 µM
  relative viability: 0.246
NCI-H1755; first compound 0.0002 µM
  relative viability: 0.833
NCI-H1755; first compound 0.000632 µM
  relative viability: 0.535
NCI-H1755; first compound 0.002 µM
  relative viability: 0.503
NCI-H1755; first compound 0.006325 µM
  relative viability: 0.382
NCI-H1755; first compound 0.02 µM
  relative viability: 0.353
H3255; first compound 0.0002 µM
  relative viability: 0.654
H3255; first compound 0.000632 µM
  relative viability: 0.757
H3255; first compound 0.002 µM
  relative viability: 0.376
H3255; first compound 0.006325 µM
  relative viability: 0.267
H3255; first compound 0.02 µM
  relative viability: 0.252
